# Assay results reported in PMC7766225, “Structure-Based Discovery and Bioactivity Evaluation of Novel Aurora-A Kinase Inhibitors as Anticancer Agents via Docking-Based Comparative Intermolecular Contacts Analysis (dbCICA)” (Molecules, 2020).
# Read-outs that look alike come from different tables or passages of the source.
# Experiments:
# Aurora-A kinase [1] = biological target: T1, Aurora-A kinase (Homo sapiens, UniProt O14965); test: FRET-based Z'-LYTE kinase enzyme inhibition assay; format: biochemical; settings: 10 µM, duplicates, Z'-LYTE
# T1 construct: purchased Invitrogen (Carlsbad, CA, USA)
# T1 sequence (O14965 1-403): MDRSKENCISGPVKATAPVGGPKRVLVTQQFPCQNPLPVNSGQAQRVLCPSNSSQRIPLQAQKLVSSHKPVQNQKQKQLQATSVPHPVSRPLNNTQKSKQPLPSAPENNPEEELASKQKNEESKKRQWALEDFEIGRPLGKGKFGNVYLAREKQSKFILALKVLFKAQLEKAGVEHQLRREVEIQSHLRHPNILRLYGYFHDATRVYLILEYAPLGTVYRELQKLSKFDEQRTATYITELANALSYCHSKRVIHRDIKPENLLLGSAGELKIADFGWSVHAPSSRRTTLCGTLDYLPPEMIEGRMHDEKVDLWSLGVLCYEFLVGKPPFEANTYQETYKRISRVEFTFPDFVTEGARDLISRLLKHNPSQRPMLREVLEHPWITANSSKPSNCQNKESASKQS
# Procedure: This bioassay was conducted using Z′-LYTE® kinase assay (Invitrogen, Carlsbad, CA, USA) [68, 69]. This biochemical assay depends on fluorescence emission as detection method utilizing a synthetic fluorescence resonance energy transfer (FRET) peptide with two fluorophores: coumarin that work as donor and fluorescein as acceptor [69]. Each hit or compound was dissolved in DMSO to form 10 mM stock solution. Hits were screened at 10 μM concentration. The bioassay was performed in black 384-well plate. For each assay, 100 nL of tested compound stock solution (10 mM) was mixed with 2.4 μL kinase buffer, 5 μL (peptide substrate/Aurora-A Kinase) mixture, and 2.5 μL ATP solution.
# The tests were conducted in duplicates.
# Aurora-A kinase [2] = biological target: T1, Aurora-A kinase; settings: Table S1, ChEMBL, et al., cited from earlier work
SMILES,% Inhibition at 10 µM (Aurora-A kinase [1]),other results
COc1ccc(/N=N/c2ccc(O)cc2)cc1 [Hit 135],7%,
COc1ccc(N=[N+]([O-])c2ccc(OC)cc2)cc1 [Hit 148],-3%,
CNc1nc(C)c(-c2ccnc(Nc3cc(OC)c(OC)c(OC)c3)n2)s1 [Compound 69],,"Ki (Aurora-A kinase [2]; ref Wang, 2010): 1 nM"
CC(Cc1ccccc1)NCC(=O)c1ccc(O)c(O)c1 (stereo not drawn) [Hit 107],25%,
Cc1ccc[n+](CC(=O)c2ccc([N+](=O)[O-])cc2)c1 [Hit 106],6%,
Cc1ccc(S(=O)(=O)Nc2ccc3cc([N+](=O)[O-])ccc3c2[N+](=O)[O-])cc1 [Hit 132],22%,
Cc1nc(C)c(-c2ccnc(Nc3ccc(N)cc3)n2)s1 [Compound 67],,"Ki (Aurora-A kinase [2]; ref Wang, 2010): 31 nM"
COc1ccc([C@@H](O)Cc2ccc(Cl)cc2)cc1 [Hit 140],-7%,
COc1cc2c(Nc3cc(CC(=O)Nc4ccccc4)[nH]n3)ncnc2cc1OCCCN1CCC(CO)CC1 [Compound 1],,"Ki (Aurora-A kinase [2]; ref Mortlock, 2007): 1600 nM"
COc1ccc(-c2oc3ccc(C)cc3c(=O)c2O)cc1 [Hit 80],20%,
COc1cc2c(Nc3cc(CC(=O)Nc4cccc(F)c4F)[nH]n3)ncnc2cc1OCCCN1CCC(O)CC1 [Compound 13],,"Ki (Aurora-A kinase [2]; ref Mortlock, 2007): 220 nM"
COc1ccc(C=Cc2ccc3ccccc3n2)cc1 [Hit 121],-2%,
COc1cc2c(Nc3cc(CC(=O)Nc4cccc(F)c4)[nH]n3)ncnc2cc1OCCCNCCO [Compound 15],,"Ki (Aurora-A kinase [2]; ref Mortlock, 2007): 690 nM"
CCN(CCO)CCCOc1cc2ncnc(Nc3cc(CC(=O)Nc4cccc(F)c4F)[nH]n3)c2cc1OC [Compound 19],,"Ki (Aurora-A kinase [2]; ref Mortlock, 2007): 360 nM"
COc1cccc(/C=C/C(=O)/C=C/C=C/c2ccccc2)c1 [Hit 96],0%,
CCC(=O)Nc1ccc(Sc2nc(Nc3cc(C)[nH]n3)cc(N3CCCCC3)n2)cc1 [Compound 57],,"Ki (Aurora-A kinase [2]; ref Bebbington, 2009): 1.6 nM"
COc1cc2c(Nc3cc(CC(=O)Nc4cccc(F)c4F)[nH]n3)ncnc2cc1OCCCN1CCN(CCO)CC1 [Compound 12],,"Ki (Aurora-A kinase [2]; ref Mortlock, 2007): 55 nM"
COc1cc2c(Nc3cc(CC(=O)Nc4cc(F)cc(F)c4)[nH]n3)ncnc2cc1OCCCN1CCC(CO)CC1 [Compound 6],,"Ki (Aurora-A kinase [2]; ref Mortlock, 2007): 230 nM"
CCCCNC(C(=O)c1ccc(OC)cc1)c1ccc(OC)cc1 (stereo not drawn) [Hit 144],0%,
O=[N+]([O-])c1cccc(S(=O)(=O)Nc2ccc(Cl)cc2)c1 [Hit 118],7%,
COc1ccc(CCc2ccc3cc(OC)ccc3n2)cc1 [Hit 98],-5%,
C[n+]1c(/C=C/c2ccc([N+](=O)[O-])cc2)oc2ccccc21 [Hit 111],1%,
CCC(=Cc1ccc(OC)cc1)C(=O)c1ccc(OC)cc1 [Hit 126],-2%,
COc1cccc(CC(C)NCC(O)c2ccc(O)c(O)c2)c1 (stereo not drawn) [Hit 152],1%,
CC(=O)Nc1ccc(Sc2nc(C)cc(Nc3cc(C)[nH]n3)n2)cc1 [Compound 50],,"Ki (Aurora-A kinase [2]; ref Bebbington, 2009): 18 nM"
CCNC(Cc1ccc(OC)cc1)c1ccc(OC)cc1 (stereo not drawn) [Hit 91],-2%,

SMILES,% Inhibition at 10 µM (Aurora-A kinase [1]),other results
COc1ccc(N=Nc2ccc(OC)cc2)cc1 [Hit 134],8%,
O=C(CNCCCc1ccccc1)c1ccc(O)c(O)c1 [Hit 147],14%,
COc1ccc(CNCCNCc2ccc(OC)cc2)cc1 [Hit 100],7%,
CC(=O)Nc1ccc(S(=O)(=O)NN=Cc2cc(Cl)ccc2O)cc1 [Hit 103],12%,
COc1ccc(C(=O)C(O)c2ccc(OC)cc2)cc1 (stereo not drawn) [Hit 149],-1%,
CC[C@@H](C(=O)c1ccc(OC)cc1)c1ccc(OC)cc1 [Hit 119],-3%,
CC(=O)Nc1ccc(S(=O)(=O)NN=Cc2ccc(C)cc2)cc1 [Hit 102],6%,
COc1cccc(C(N)CCc2cc(OC)c(OC)c(OC)c2)c1 (stereo not drawn) [Hit 124],-2%,
O=[N+]([O-])c1ccc(S(=O)(=O)NN=Cc2ccco2)cc1 [Hit 136],5%,
O=C(NC(Cc1ccc2c(c1)OCO2)C(=O)O)c1ccccc1 (stereo not drawn) [Hit 139],6%,
NC[C@@H](O)c1ccc(Nc2ccnc3cc(Cl)ccc23)cc1 [Hit 104],23%,
COc1ccc(CC(=O)c2ccc(OC)cc2)cc1 [Hit 150],-3%,
COc1ccc(C=NCCN=Cc2ccc(OC)cc2)cc1 [Hit 129],3%,
COc1ccc(C(=O)OCc2ccc3c(c2)OCO3)cc1 [Hit 94],-2%,
COc1ccc(C2OC(c3ccc(OC)cc3)c3ccccc32)cc1 (stereo not drawn) [Hit 133],3%,
O=C(Oc1ccc(Cl)cc1Cl)c1ccc([N+](=O)[O-])cc1 [Hit 137],-30%,
O=C(OCC=Cc1ccccc1)c1ccc([N+](=O)[O-])cc1 [Hit 131],3%,
COc1ccc(NC(=O)c2ccc(Cl)cc2Cl)cc1 [Hit 108],-7%,
COc1ccc(/C=N/N=C/c2ccc(OC)cc2)cc1 [Hit 82],5%,
COc1ccc(NC(=O)CC(=O)Nc2ccc(OC)cc2)cc1 [Hit 101],6%,
COc1ccc(C=Cc2ccc(Cl)cc2)cc1 [Hit 128],-5%,
COc1ccc(CC(C)NCC(O)c2ccc(O)c(O)c2)cc1 (stereo not drawn) [Hit 95],30%,
COc1ccc(CCCCCCc2ccc(OC)cc2)cc1 [Hit 115],-1%,
COc1ccc(C(=O)C=Cc2ccc3c(c2)OCO3)cc1 [Hit 113],8%,
COc1ccc(C(Cc2ccc(Cl)cc2)NCCO)cc1 (stereo not drawn) [Hit 92],3%,
COc1ccc(C=NNS(=O)(=O)c2ccc(NC(C)=O)cc2)cc1 [Hit 89],2%,

SMILES,% Inhibition at 10 µM (Aurora-A kinase [1]),other results
CCOc1ccc(N=C(C)Nc2ccc(OCC)cc2)cc1 [Hit 110],3%,
O=C(CCCc1ccc([N+](=O)[O-])cc1)c1ccccc1 [Hit 153],-6%,
CNC(Cc1ccc(OC)cc1)c1ccc(OC)cc1 (stereo not drawn) [Hit 154],-2%,
COc1ccc(CCC(N)c2ccc(OC)cc2)cc1 (stereo not drawn) [Hit 122],-1%,
CC(=NNS(=O)(=O)c1ccc([N+](=O)[O-])cc1)c1ccc(C)cc1 [Hit 86],12%,
CC(Cc1ccccc1)=NNS(=O)(=O)c1ccc([N+](=O)[O-])cc1 [Hit 83],7%,
COc1ccc(C(N)C(O)c2ccc(OC)cc2)cc1 (stereo not drawn) [Hit 145],0%,
COc1ccc(C(=O)OCc2ccc3c(c2)OCO3)cc1 [Hit 99],5%,
CN(C)CC(O)c1ccc(C=Cc2ccc(Cl)cc2)cc1 (stereo not drawn) [Hit 143],-72%,
COc1ccc(CC(=O)c2ccc(OC)c(OC)c2)cc1OC [Hit 117],7%,
COc1ccc(C(=O)OCc2ccc3c(c2)OCO3)cc1 [Hit 90],-2%,
COc1ccc(OC(=O)c2ccc(Cl)cc2)cc1 [Hit 127],0%,
Cc1cc[n+](CC(=O)c2ccc([N+](=O)[O-])cc2)cc1 [Hit 146],4%,
Oc1ccc(/C=C/c2ccc(Cl)cc2)cc1 [Hit 151],-7%,
CCOC(=O)C(=Cc1cc(C)c(OC(C)=O)c(OC)c1)NC(=O)c1ccccc1 [Hit 97],-4%,
NOS(=O)c1ccc(N=CC=Cc2ccccc2)cc1 (stereo not drawn) [Hit 116],21%,
CCCCN[C@@H](c1ccc(OC)cc1)[C@H](O)c1ccc(OC)cc1 [Hit 81],3%,
O=[N+]([O-])c1ccc(COc2ccc(Cl)cc2)cc1 [Hit 142],-3%,
COc1ccc(C(=O)[C@H](CN(C)C)c2ccc(OC)cc2)cc1 [Hit 105],1%,
COc1ccc(C(=O)Oc2ccc(C=O)cc2OC)cc1 [Hit 109],-142%,
O=C(NCCc1ccccc1)c1ccc([N+](=O)[O-])cc1 [Hit 87],-4%,
COc1ccc(C[N+](C)(C)Cc2ccc(OC)cc2)cc1 [Hit 120],-2%,
COc1ccc(C(=O)CCCCC(=O)c2ccc(OC)cc2)cc1 [Hit 114],4%,
COc1ccc2c(ccc[n+]2CC(=O)c2ccc(SC)cc2)c1 [Hit 93],14%,
COc1ccc(NC(=O)c2ccc(Cl)cc2)cc1 [Hit 138],-1%,
CCOc1ccc(NC(=O)Nc2ccc(OCC)cc2)cc1 [Hit 125],-1%,
